Assay results as given in ChEMBL document CHEMBL1154885, “Heat shock protein 90: inhibitors in clinical trials” (J Med Chem, 2010).
≈ marks a conversion by molar mass, not a printed value.

Tests used:
[1] = Antitumor activity against human U87MG cells xenografted in mouse assessed as tumor regression at 50 mg/kg, ip; assay type: functional, U-87MG ATCC; details: route intraperitoneal
[2] = AUC in tumor of mouse bearing human WM266.4 cells at 50 mg/kg, ip; assay type: ADME, organism-based, Neoplasm; set-up: dose 50 mg/kg, route intraperitoneal
[3] = Cmax in tumor of mouse bearing human WM266.4 cells at 50 mg/kg, iv; assay type: ADME, organism-based, Neoplasm; set-up: dose 50 mg/kg, route intravenous; details: read-out: Cmax_tumor
[4] = Clearance in plasma of mouse bearing human WM266.4 cells at 50 mg/kg, ip; assay type: ADME, organism-based; set-up: dose 50 mg/kg, route intraperitoneal
[5] = Drug level in tumor of mouse bearing human WM266.4 cells at 50 mg/kg, ip administered once daily for 5 days measured after 24 hrs after final dose; assay type: ADME, organism-based, Neoplasm; set-up: dose 50 mg/kg, route intraperitoneal; details: read-out: Drug uptake
[6] = Cmax in plasma of mouse bearing human WM266.4 cells at 50 mg/kg, ip; assay type: ADME, organism-based; set-up: dose 50 mg/kg, route intraperitoneal
[7] = Metabolic stability in mouse liver microsomes assessed as drug remaining after 30 mins; assay type: ADME, Microsome; details: read-out: Stability
[8] = Clearance in tumor of mouse bearing human WM266.4 cells at 50 mg/kg, ip; assay type: ADME, organism-based, Neoplasm; set-up: dose 50 mg/kg, route intraperitoneal; details: in vivo
[9] = Toxicity in mouse assessed as maximum tolerated dose; assay type: organism-based; details: in vivo
[10] = Apparent volume of distribution in tumor of mouse bearing human WM266.4 cells at 50 mg/kg, iv; assay type: ADME, organism-based, Neoplasm; set-up: dose 50 mg/kg, route intravenous; details: read-out: Vz
[11] = Clearance in tumor of mouse bearing human WM266.4 cells at 50 mg/kg, iv; assay type: ADME, organism-based, Neoplasm; set-up: dose 50 mg/kg, route intravenous; details: in vivo
[12] = AUC in plasma of mouse bearing human WM266.4 cells at 50 mg/kg, ip; assay type: ADME, organism-based; set-up: dose 50 mg/kg, route intraperitoneal
[13] = Metabolic stability in human liver microsomes assessed as drug remaining after 30 mins; assay type: ADME, Microsome; details: read-out: Stability
[14] = test system: Mus musculus; test: Hepatic blood flow in mouse bearing human WM266.4 cells at 50 mg/kg, ip; assay type: ADME, organism-based, Liver; set-up: dose 50 mg/kg, route intraperitoneal; details: in vivo
[15] = Half life in plasma of mouse bearing human WM266.4 cells at 50 mg/kg, ip; assay type: ADME, organism-based; set-up: dose 50 mg/kg, route intraperitoneal
[16] = test system: Plasma; test: Apparent volume of distribution in plasma of mouse bearing human WM266.4 cells at 50 mg/kg, iv; assay type: ADME, organism-based; set-up: dose 50 mg/kg, route intravenous; details: in vivo
[17] = Cmax in tumor of mouse bearing human WM266.4 cells at 50 mg/kg, ip; assay type: ADME, organism-based, Neoplasm; set-up: dose 50 mg/kg, route intraperitoneal; details: read-out: Cmax_tumor
[18] = test system: Plasma; test: Clearance in plasma of mouse bearing human WM266.4 cells at 50 mg/kg, iv; assay type: ADME, organism-based; set-up: dose 50 mg/kg, route intravenous; details: in vivo
[19] = test system: BT-474; test: Antitumor activity against human BT474 cells xenografted in mouse at 50 mg/kg, ip; assay type: functional; details: BT-474, ip, route intraperitoneal, read-out: TGI
[20] = test system: Plasma; test: Apparent volume of distribution in plasma of mouse bearing human WM266.4 cells at 50 mg/kg, ip; assay type: ADME, organism-based; set-up: dose 50 mg/kg, route intraperitoneal; details: in vivo
[21] = Apparent volume of distribution in tumor of mouse bearing human WM266.4 cells at 50 mg/kg, ip; assay type: ADME, organism-based, Neoplasm; set-up: dose 50 mg/kg, route intraperitoneal; details: in vivo
[22] = AUC in tumor of mouse bearing human WM266.4 cells at 50 mg/kg, iv; assay type: ADME, organism-based, Neoplasm; set-up: dose 50 mg/kg, route intravenous
[23] = AUC in plasma of mouse bearing human WM266.4 cells at 50 mg/kg, iv; assay type: ADME, organism-based; set-up: dose 50 mg/kg, route intravenous
[24] = Cmax in plasma of mouse bearing human WM266.4 cells at 50 mg/kg, iv; assay type: ADME, organism-based; set-up: dose 50 mg/kg, route intravenous
[25] = Half life in tumor of mouse bearing human WM266.4 cells at 50 mg/kg, ip; assay type: ADME, organism-based, Neoplasm; set-up: dose 50 mg/kg, route intraperitoneal
[26] = test system: Mus musculus; test: Toxicity in mouse assessed as body weight loss at 70 mg/kg, ip after 8 days; assay type: organism-based; set-up: dose 70 mg/kg, route intraperitoneal; details: in vivo, 192 h
[27] = test system: Plasma; test: Half life in plasma of mouse bearing human WM266.4 cells at 50 mg/kg, iv; assay type: ADME, organism-based; set-up: dose 50 mg/kg, route intravenous; details: in vivo
[28] = Half life in tumor of mouse bearing human WM266.4 cells at 50 mg/kg, iv; assay type: ADME, organism-based, Neoplasm; set-up: dose 50 mg/kg, route intravenous
[29] = Half life in plasma of mouse bearing human MM1S cells at 50 mg/kg; assay type: ADME, organism-based; set-up: dose 50 mg/kg
[30] = Half life in tumor of mouse bearing human MM1S cells at 50 mg/kg; assay type: ADME, organism-based, Neoplasm; set-up: dose 50 mg/kg
[31] = Solubility in water; assay type: physicochemical
[32] = Half life in liver of mouse bearing human A2780 cells at 80 mg/kg, ip administered as DMSO/egg phospholipid formulation; assay type: ADME, organism-based; set-up: dose 80 mg/kg, route intraperitoneal
[33] = test system: NCI-H1650; test: Antitumor activity against human NCI-H1650 cells xenografted in mouse at 100 mg/kg administered daily for 5 days a week; assay type: functional; details: NCI-H1650, 120 h, read-out: TGI
[34] = AUC in human at 220 mg/m2 administered as DMSO/egg phospholipid formulation; assay type: ADME, organism-based; details: plasma
[35] = test system: Plasma; test: Apparent volume of distribution in plasma of mouse bearing human A2780 cells at 80 mg/kg, ip administered as DMSO/egg phospholipid formulation; assay type: ADME, organism-based; set-up: dose 80 mg/kg, route intraperitoneal; details: in vivo
[36] = Clearance in tumor of mouse bearing human A2780 cells at 80 mg/kg, ip administered as DMSO/egg phospholipid formulation; assay type: ADME, organism-based, Neoplasm; set-up: dose 80 mg/kg, route intraperitoneal; details: in vivo
[37] = test system: Liver; test: Clearance in liver of mouse bearing human A2780 cells at 80 mg/kg, ip administered as DMSO/egg phospholipid formulation; assay type: ADME, organism-based; set-up: dose 80 mg/kg, route intraperitoneal; details: in vivo
[38] = test system: Liver; test: Apparent volume of distribution in liver of mouse bearing human A2780 cells at 80 mg/kg, ip administered as DMSO/egg phospholipid formulation; assay type: ADME, organism-based; set-up: dose 80 mg/kg, route intraperitoneal; details: in vivo
[39] = Cmax in liver of mouse bearing human A2780 cells at 80 mg/kg, ip administered as DMSO/egg phospholipid formulation; assay type: ADME, organism-based; set-up: dose 80 mg/kg, route intraperitoneal
[40] = test system: Homo sapiens; test: Toxicity in human assessed as maximum tolerated dose administered on 3 days schedule administered as DMSO/egg phospholipid formulation; assay type: organism-based; details: in vivo, 72 h
[41] = test system: A2780; test: Antitumor activity against human A2780 cells xenografted in mouse at 80 mg/kg, ip administered as DMSO/egg phospholipid formulation; assay type: functional; details: route intraperitoneal, read-out: TGI
[42] = Apparent volume of distribution in tumor of mouse bearing human A2780 cells at 80 mg/kg, ip administered as DMSO/egg phospholipid formulation; assay type: ADME, organism-based, Neoplasm; set-up: dose 80 mg/kg, route intraperitoneal; details: in vivo
[43] = AUC in plasma of mouse bearing human A2780 cells at 80 mg/kg, ip administered as DMSO/egg phospholipid formulation; assay type: ADME, organism-based; set-up: dose 80 mg/kg, route intraperitoneal
[44] = Half life in human at 220 mg/m2 administered as DMSO/egg phospholipid formulation; assay type: ADME, organism-based; details: in vivo
[45] = test system: Homo sapiens; test: Toxicity in human assessed as maximum tolerated dose administered on daily schedule administered as DMSO/egg phospholipid formulation; assay type: organism-based; details: in vivo
[46] = Cmax in tumor of mouse bearing human A2780 cells at 80 mg/kg, ip administered as DMSO/egg phospholipid formulation; assay type: ADME, organism-based, Neoplasm; set-up: dose 80 mg/kg, route intraperitoneal; details: read-out: Cmax_tumor
[47] = Half life in tumor of mouse bearing human A2780 cells at 80 mg/kg, ip administered as DMSO/egg phospholipid formulation; assay type: ADME, organism-based, Neoplasm; set-up: dose 80 mg/kg, route intraperitoneal
[48] = AUC in tumor of mouse bearing human A2780 cells at 80 mg/kg, ip administered as DMSO/egg phospholipid formulation; assay type: ADME, organism-based, Neoplasm; set-up: dose 80 mg/kg, route intraperitoneal
[49] = Cmax in human at 220 mg/m2 administered as DMSO/egg phospholipid formulation; assay type: ADME, organism-based; details: in vivo
[50] = Half life in plasma of mouse bearing human A2780 cells at 80 mg/kg, ip administered as DMSO/egg phospholipid formulation; assay type: ADME, organism-based; set-up: dose 80 mg/kg, route intraperitoneal
[51] = Chemical stability assessed as half life; assay type: physicochemical
[52] = Cmax in plasma of mouse bearing human A2780 cells at 80 mg/kg, ip administered as DMSO/egg phospholipid formulation; assay type: ADME, organism-based; set-up: dose 80 mg/kg, route intraperitoneal
[53] = AUC in liver of mouse bearing human A2780 cells at 80 mg/kg, ip administered as DMSO/egg phospholipid formulation; assay type: ADME, organism-based; set-up: dose 80 mg/kg, route intraperitoneal
[54] = Clearance in human at 220 mg/m2 administered as DMSO/egg phospholipid formulation; assay type: ADME, organism-based; details: in vivo
[55] = Clearance in plasma of mouse bearing human A2780 cells at 80 mg/kg, ip administered as DMSO/egg phospholipid formulation; assay type: ADME, organism-based; set-up: dose 80 mg/kg, route intraperitoneal

CCNC(=O)c1noc(-c2cc(C(C)C)c(O)cc2O)c1-c1ccc(CN2CCOCC2)cc1 [LUMINESPIB]
Activity [1]: 58%
AUC [2]: 36 µM·h
Cmax [3]: 14 µM
CL/F [4]: 1.37 mL/min
concentration at 24 h [5]: 6.8 µM
Cmax [6]: 53 µM
remaining at 0.5 h [7]: 31%
CL [8]: 0.41 L/h
MTD [9]: 50 mg/kg
Vd [10]: 0.44 L
CL [11]: 0.02 L/h
AUC [12]: 26 µM·h
remaining at 0.5 h [13]: 41%
LBF [14]: 108 mL/h
half-life [15]: 1 h
Vz [16]: 0.875 L
Cmax [17]: 6 µM
CL [18]: 0.143 L/h
inhibition in vivo at 50 mg/kg [19]: 79%
Vz [20]: 0.077 L
Vz [21]: 0.883 L
AUC [22]: 70 µM·h
AUC [23]: 15 µM·h
Cmax [24]: 49 µM
half-life [25]: 15 h
Activity [26]: 10%
t1/2 [27]: 1 h
half-life [28]: 15 h

CC1(C)CC(=O)c2c(C(F)(F)F)nn(-c3ccc(C(N)=O)c(N[C@H]4CC[C@H](O)CC4)c3)c2C1 [SNX-2112]
half-life [29]: 3 h
half-life [30]: 10 h

C=CCNC1=C2C[C@@H](C)C[C@H](OC)[C@H](O)[C@@H](C)/C=C(\C)[C@H](OC(N)=O)[C@@H](OC)/C=C\C=C(/C)C(=O)NC(=CC1=O)C2=O [TANESPIMYCIN]
solubility [31]: 20 µg/mL (≈ 34.1 µM)
half-life [32]: 0.86 h
inhibition in vivo at 100 mg/kg [33]: 30%
AUC [34]: 22 µM·h
Vz [35]: 0.05 L
CL [36]: 0.03 L/h
CL [37]: 0.01 L/h
Vz [38]: 0.01 L
Cmax [39]: 126 µM
MTD [40]: 220 mg/m2
inhibition in vivo at 80 mg/kg [41]: 70%
Vz [42]: 0.34 L
AUC [43]: 68 µM·h
half-life [44]: 3.8 h
MTD [45]: 56 mg/m2
Cmax [46]: 15 µM
half-life [47]: 7.5 h
AUC [48]: 80 µM·h
Cmax [49]: 7.5 µM
half-life [50]: 0.88 h
half-life [51]: 9.8 h
Cmax [52]: 35 µM
AUC [53]: 263 µM·h
clearance [54]: 700 mL/min
CL/F [55]: 0.667 mL/min
